Measured values published in ChEMBL document CHEMBL1201862, “PubChem BioAssay data set” (2004).
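Growth conditions: 96-well plates. Treatment: test compound, 48 hours, 5 concentrations. Analysis: linear interpolation between bracketing concentrations; unreached endpoints set to highest concentration. Here, GI50 denotes the concentration required for 50% inhibition of growth.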 Calls of active or inactive are those of the source. No stated cut-off is given here; in the data, active = GI50 up to about 1.1 µM and inactive = higher.

Assays:
Assay in all cases: DTP human tumour cell line panel, 48 h
SF-295 = tested on: SF-295
NCI-H23 = tested on: NCI-H23
NCI-H522 = tested on: NCI-H522
IGROV-1 = tested on: IGROV-1
UO-31 = tested on: UO-31
SK-MEL-2 = tested on: SK-MEL-2
HCT-116 = tested on: HCT-116
OVCAR-3 = tested on: OVCAR-3
HCT-15 = tested on: HCT-15
HT-29 = tested on: HT-29
TK-10 = tested on: TK-10
EKVX = tested on: EKVX
SNB-19 = tested on: SNB-19
PC-3 = tested on: PC-3
MDA-MB-435 = tested on: MDA-MB-435
T47D = tested on: T47D
NCI/ADR-RES = tested on: NCI/ADR-RES
Hs-578T = tested on: Hs-578T
BT-549 = tested on: BT-549

Structure (SMILES)	GI50 (SF-295)	GI50 (NCI-H23)	GI50 (NCI-H522)	GI50 (IGROV-1)	GI50 (UO-31)	GI50 (SK-MEL-2)	GI50 (HCT-116)	GI50 (OVCAR-3)	GI50 (HCT-15)	GI50 (HT-29)	GI50 (TK-10)	GI50 (EKVX)	GI50 (SNB-19)	GI50 (PC-3)	GI50 (MDA-MB-435)	GI50 (T47D)	GI50 (NCI/ADR-RES)	GI50 (Hs-578T)	GI50 (BT-549)
CC1(c2ccccc2)CC(c2cccc([N+](=O)[O-])c2)=NO1 (stereo unspecified)	47.8 µM (inactive)	89.1 µM (inactive)	30.1 µM (inactive)	> 100 µM (inactive)	82.8 µM (inactive)	> 100 µM (inactive)	> 100 µM (inactive)	> 100 µM (inactive)	> 100 µM	73.1 µM (inactive)	> 100 µM (inactive)								
CCN(CC)c1c(C(=O)/C=C/c2ccc(F)cc2)c(-c2ccccc2)nn(C)c1=O	12.2 µM (inactive)	4.12 µM (inactive)	3.57 µM (inactive)	5.98 µM (inactive)	11.3 µM (inactive)	4.66 µM (inactive)	3.87 µM (inactive)	3.82 µM (inactive)	10.4 µM	6.5 µM (inactive)	17.7 µM (inactive)	13.8 µM (inactive)	17 µM (inactive)						
NC1=NN(c2ccccc2)C(=O)C1C(=O)C(=O)Nc1ccc(Cl)c(Cl)c1 (stereo unspecified)	> 100 µM (inactive)	> 100 µM (inactive)	84.9 µM (inactive)	> 100 µM (inactive)	> 100 µM (inactive)	> 100 µM (inactive)	> 100 µM (inactive)	> 100 µM (inactive)	68.7 µM	> 100 µM (inactive)	> 100 µM (inactive)	> 100 µM (inactive)	1.06 µM (active)						
COc1cc(C(CC(OC)OC)=C(C#N)C#N)cc(OC)c1OC	19.5 µM (inactive)	28.1 µM (inactive)	13.9 µM (inactive)	39.4 µM (inactive)	28.1 µM (inactive)	21.9 µM (inactive)	18.2 µM (inactive)	34.3 µM (inactive)	16.9 µM	5.6 µM (inactive)	58.3 µM (inactive)	34.9 µM (inactive)	39.5 µM (inactive)						
O=[N+]([O-])/C(C(Cl)=C(Cl)Cl)=C(/Cl)Sc1ccccc1	20 µM (inactive)	1.77 µM (inactive)	1.23 µM (inactive)	2.01 µM (inactive)	1.42 µM (inactive)	13.3 µM (inactive)	1.31 µM (inactive)	2.05 µM (inactive)	2.15 µM	2.24 µM (inactive)	2.67 µM (inactive)	15.6 µM (inactive)	17.7 µM (inactive)	2.26 µM (inactive)	1.86 µM (inactive)	3.03 µM (inactive)	1.08 µM (active)	3.15 µM (inactive)	
Cc1cn([C@@H]2C[C@H]2CO)c(=O)[nH]c1=O		> 100 µM (inactive)	> 100 µM (inactive)	> 100 µM (inactive)	80.4 µM (inactive)	> 100 µM (inactive)	> 100 µM (inactive)		> 100 µM	> 100 µM (inactive)	> 100 µM (inactive)	> 100 µM (inactive)	> 100 µM (inactive)	> 100 µM (inactive)	> 100 µM (inactive)	> 100 µM (inactive)	> 100 µM (inactive)		> 100 µM (inactive)
COc1ccc2oc(=N)c(C(N)=O)cc2c1		68.2 µM (inactive)		30.5 µM (inactive)		23.6 µM (inactive)	50.9 µM (inactive)	37.4 µM (inactive)	53.1 µM	56.4 µM (inactive)			38.4 µM (inactive)	37.9 µM (inactive)	49.4 µM (inactive)	32 µM (inactive)	53.3 µM (inactive)	18.2 µM (inactive)	57.7 µM (inactive)
O=C1/C(=C/c2ccc(Cl)cc2)N=C(c2ccccc2)N1c1nc2ccccc2s1	40.4 µM (inactive)	30.4 µM (inactive)	24.4 µM (inactive)	34.4 µM (inactive)	37.3 µM (inactive)	28.3 µM (inactive)	40.7 µM (inactive)	38.5 µM (inactive)	47.8 µM	64.1 µM (inactive)	56.2 µM (inactive)	> 100 µM (inactive)		29.9 µM (inactive)	53 µM (inactive)	46.8 µM (inactive)	34 µM (inactive)	20 µM (inactive)	
O=c1n(-c2ccccc2)c(=O)n2c(-c3ccccc3)c(-c3ccccc3)n12	84.1 µM (inactive)	> 100 µM (inactive)		> 100 µM (inactive)	66.4 µM (inactive)	> 100 µM (inactive)	37.4 µM (inactive)	> 100 µM (inactive)	82.4 µM	70.1 µM (inactive)	> 100 µM (inactive)	> 100 µM (inactive)	> 100 µM (inactive)	77.8 µM (inactive)			> 100 µM (inactive)	> 100 µM (inactive)	> 100 µM (inactive)
